Broadly, the solubility is the concentration that dissolves in the medium under given conditions. Higher therefore signals a readily soluble substance. A word on the IC50: it is the concentration needed to halve the response being measured.

Converted amounts (≈) assume the structure as drawn.

Here are results for one compound from patent publication US20240197596A1, “COMPOUNDS USEFUL AS HAIR DYES” (National University of Singapore, priority 2021, published 2024).

Data set [1] has as its system THP-1 cells. Nature of the data set: MTT assay on THP-1 cells (CV75). It is filed as cell-based, human. As to conditions: THP-1 cells, 24 h. As for the experimental part:
THP-1 (human acute monocytic leukaemia cell line) cell suspension was adjusted to 1×10^5 cells per well and seeded in 96-well plates. The plate was incubated at 37° C. with 5% CO2. After 24 h, 10 mM stock solutions of N1-N13 were prepared in autoclaved milli-Q water. A series of concentrations diluted in media was prepared and added to the wells. Each concentration was performed in 6-replicates, and seeded wells with only media and no compound were used as controls while wells with only media were used as blanks. The plate was incubated for 24 h, after which 100 μL of MTT reagent was added and the plate was further incubated for 3 h before adding 100 μL of DMSO. Subsequently, the plate was shaken for 20 min, and then absorbance at 570 nm was determined using a Bio-Tek plate reader. Percentage cell viability was calculated and CV75 values were determined.
(In general: Tetrazolium dyes change colour on reduction, which living cells bring about.)

For data set [2] the following is noted: in vivo; cited from earlier work.
In data set [3] the test system is THP-1 cells. The data set is described as follows: h-CLAT assay on THP-1 cells: markers against OECD cut-off, prediction, cell viability. As to conditions: 8 doses based on CV75, 24 h. It is filed as cell-based, human. As for the experimental part: (§1) The assay was conducted as per the literature (Toxicol In Vitro, 2006, 20, 767-73). THP-1 cells were cultured in 24-well plates (1×10^6 cells/1 mL/well) with various concentrations of each chemical (N1-N13), +ve control (DNCB), −ve control for 24 h.
(§2) THP-1 cells were cultured in 24-well plates (1×10^6 cells/mL/well) and treated with recommended concentrations of each chemical (N1-N13), positive control (DNCB) or negative control (SLS) for 24 h. THP-1 cells were cultured and treated with 8 doses of N1-N13 based on the CV75 namely, 1.2×CV75, 1×CV75, 1/1.2×CV75, 1/1.2^2×CV75, 1/1.23×CV75, 1/1.24×CV75, 1/1.2^5×CV75 and 1/1.2^6×CV75. After 24 h, cells were transferred to 1.5 mL of microtubes and centrifuged at 450 g, 5 min, 4° C. Supernatant was discarded and cells were washed with 1 mL of FACS buffer (PBS+FBS+HEPES). The cells were centrifuged at 450 g, 5 min, 4° C. 50 μL of Fc block (0.01% of Globlins Cohn fraction II, III) was added and incubated for 10 min at 4° C. The cells were stained with 20 μL APC CD54 (Mouse IgG1, K, BD Biosciences, San Diego, CA, USA), 20 μL FITC CD86 (Mouse IgG1, K, BD Biosciences, San Diego, CA, USA) or their respective isotype controls and incubated for 15 min at room temperature in dark. After incubation, the antibodies were diluted with 200 μl FACS buffer. The cells were washed with 1 mL FACS buffer twice. Further, 200 μL Propidium iodide (PI, 0.625 μg/mL) prepared in FACS buffer was added before the flow cytometry analysis. Flow cytometric analysis was performed with BD LSR Fortessa™ (Becton Dickinson, San Jose, CA, USA) In total, 10,000 living cells were analysed, and data were processed using Flowjo software (v10.6, Ashland, OR, USA). The test concentration providing a cell viability of 75% (CV75) was derived from the dose response curve and was calculated by log-linear interpolation.
(§3) Geometric mean fluorescence intensity (MFI) was measured for CD54^+ and CD86^+ cells separately and percentage relative fluorescence intensity (% RFI), reflective of CD86 and CD54 relative expression was calculated as described below. RFI was not calculated if cell viability fell below 50%.
(§4) All chemicals were tested in three independent experiments. If in two of three independent experiments at any dose exceeded 150% RFI for CD86, or 200% RFI for CD54, the chemicals could be identified as a sensitizer. Otherwise it is identified as a non-sensitizer.

The subject of a further data set is CD86. The data set is described as follows: h-CLAT assay, CD86 expression by flow cytometry. It is filed as cell-based, human. As to conditions: THP-1 cells, 24 h. As for the experimental part: as §1, §2, §3, §4
The conditions of data set [4]: data from J Hazard Mat., 2021, 402, 123712, cited from earlier work.
The subject of a further data set is CD54. Nature of the data set: h-CLAT assay, CD54 expression by flow cytometry. It is filed as cell-based, human. Conditions: THP-1 cells, 24 h. As for the experimental part: as §1, §2, §3, §4
Data set [5] is described as follows: Thermodynamic solubility assay (modified shake flask, LC-MS/MS). As to conditions: Milli-Q water, 25 °C, pH 7, water, thermodynamic from solid, Water Solubility, library of old series (Table 4). How it is done: The aqueous solubilities (pH=7) of these compounds were measured using the modified shake flask method and LC-MS/MS. Each hair dye was added into a 2 mL glass vial containing Milli-Q water (1 mL) to form the precipitates at 25° C. Then the mixture was subjected to a solubility-equilibrium stage. The vials were shaken at 300 rpm at 25° C. for 24 h. The precipitate was separated by centrifugation at 23,000 g for 20 min. Subsequently, 0.5 mL of supernatant was transferred into a 1 mL Eppendorf tube, and it was centrifuged again as mentioned above. The supernatant was then used for LC-MS/MS analysis.
The mass spectrometric analysis was performed by use of a AB SCIEX QTRAP 5500 tandem mass spectrometry (MS/MS) system (AB SCIEX, Framingham, MA, USA) operating in triple quadrupole positive mode (ESI+) equipped with an AB Sciex Turbo Ion Spray interface. Acquisition and analysis of data were performed with Analyst software ver. 1.4.2 (Applied Biosystems) which performed all chromatographic peak integration. For each hair dye, a standard curve consisting of four concentrations was established.
Solvent A was composed of 0.1% [v/v] formic acid in Milli-Q water while solvent B was composed of 0.1% [v/v] formic acid in acetonitrile. A mobile phase gradient pumped at 0.6 mL/min was used to elute the hair dyes from the column. The column was equilibrated for 1 min resulting in a total run time of 5 min. The injection volume was 5.0 μL for all derivatives. To prevent compound accumulation on the needle, 50% methanol in ACN was used as needle wash for 30 s per sample.

Another data set has as its system IL-1α. As to conditions: data from J Hazard Mat., 2021, 402, 123712 (FIG. 6); cited from earlier work.
A further data set has as its system HaCaT cells. Conditions: data from J Hazard Mat., 2021, 402, 123712; cited from earlier work.
Another data set concerns IL-8. Conditions: data from J Hazard Mat., 2021, 402, 123712 (FIG. 6); cited from earlier work.

With `COCc1cc(N)ccc1N` [ME-PPD, 2-(methoxymethyl)benzene-1,4-diamine], in the data set on THP-1 cells [1], the “CV75 (concentration affording 75% cell viability), 1 × CV75” value is 144.6 µg/mL. For the same compound, the “PPD-allergic individuals who develop an allergic reaction” value in data set [2] is “approximately 30%”. Further, the “CD54 and CD86 marker expression against OECD cut-off” value in the data set with THP-1 cells [3] is reported as “above the recommended threshold”. Further, the “EC150 for CD86 (lowest concentration inducing % RFI of 150)” value in the data set with CD86 is 117.9 µg/mL. Also, in data set [4] (8 h), the “Cumulative amount at 8th hour” value is on record as 0.519 μg/cm^2 and the “Cumulative amount comparison of PPD vs derivatives” value was 10.4. In data set [4], the “Permeated through skin into receptor” value is reported as 0.0044 % of applied compound dose, the “Recovered in donor compartment” value is on record as 89 % of applied compound dose, the Recovered in skin is 3.6 % of applied compound dose and the “Recovered in skin outside diffusion area” value was 0.0042 % of applied compound dose. Moreover, in [4], the “Recovered in skin swabs” value was 0.69 % of applied compound dose; the “Recovered on parafilm and in washes” value was 1.84 % of applied compound dose; the “Total recovery (mean percentage parent compound recovery)” value is recorded as 95 ± 0.79%. Also, in the data set with CD54, the “EC200 for CD54 (lowest concentration inducing % RFI of 200)” value was 120.5 µg/mL. The same compound returned a solubility at 24 h in data set [5] of 78 mg/mL (≈ 512 mM). Moreover, the “release of IL-1α” value in the data set with IL-1α is given as “higher concentrations”. Further, the IC50 with HaCaT cells is 334 µM. For the same compound, the “release of IL-8” value in the data set on IL-8 is recorded as “higher concentrations”.
